Assay results reported in patent US20040010001A1, “Methods and compositions for modulating cell proliferation and cell death” (priority 1999, published 2004).
Like-named read-outs stand apart in the source and are kept apart here.

Columns and labels:
Format in all cases: cell-based
[1] = system: Human prostate PC3 tumor cells; assay: aFGF/bFGF-induced resistance and reversal by suramin, sulforhodamine B assay; conditions: for Resistance, Folds, aFGF 0.3 ng/ml + bFGF 1 ng/ml / Resistance, Folds, aFGF 1 ng/ml + bFGF 3 ng/ml: no suramin, relative to control
Procedure: The experimental conditions are described briefly below. […] Cell number was measured using the sulforhodamine B assay which measures the total protein concentration. […] The FGF-induced resistance was dependent on the FGF concentrations, with a higher resistance at higher FGF concentrations.

[2] = system: Human prostate PC3 tumor cells; assay: Drug treatment and extracellular bFGF (ELISA), LDH release, cell number; conditions: for Extracellular LDH, % of control / Extracellular bFGF, % of control / Extracellular concentration bFGF / bFGF:LDH ratio: 72 hours
Procedure: The experimental conditions are described briefly below. […] The remaining cell number at the end of treatment was counted using a Coulter counter. The extracellular bFGF concentration was measured using ELISA. The release of lactate dehydrogenase (LDH) into the extracellular culture medium is indicative of cell death and gives a measure of the release of cellular content into the culture medium. If the increase in extracellular bFGF level is due to the release of bFGF upon cell death and lysis, the increase in bFGF will be accompanied by an increase in LDH in the same extent. This would result in an higher bFGF level and a constant bFGF-to-LDH ratio. On the other hand, an increase in extracellular bFGF due to an increase in bFGF production and release of bFGF from cells by processes other than cell lysis will result in an higher bFGF level and an higher bFGF-to-LDH ratio.

Human prostate PC3 = assay: FGF-induced resistance, inhibition of BrdU incorporation; conditions: cell lines derived from solid tumors; 1 ng/ml r-aFGF plus 1 ng/ml r-bFGF vs 50 ng/ml r-bFGF alone
Procedure: Prior to drug treatment, cells were incubated for 4 days with tumor CM or with r-aFGF ad/or r-bFGF-containing medium, supplemented with 1% FBS (final protein concentration adjusted to 2 mg/ml). The medium was renewed every other day.
The antiproliferative drug effect in histocultures was measured as inhibition of ^3H-thymidine incorporation quantified by autoradiography (Yen, W. C. et al. (1996) Pharm. Res. 13:1305-1312) and, for monolayers, as inhibition of BrdU incorporation or as reduction of total proteins by the sulforhodamine B assay (Au, J. L.-S. et al. (1998) Cancer Res. 58:2141-2148). For the latter, the two assays yielded qualitatively similar results. Cell kill induced by 96-hour drug treatment was monitored by the release of LDH into the culture medium. LDH activity was monitored by the conversion of tetrazolium to formazan (detected at 490 nm).
The experimental conditions are described briefly below. Cells were pretreated with human recombinant r-aFGF and/or r-bFGF for 96 hours and then with drugs for 96 hours. For the studies on cells derived from the human prostate, lung, pharynx, colon and breast cancer cells, the drug effect was determined by the inhibition of BrdU incorporation. For the study on the human leukemic cells, the drug effect was measured by the MTT assay, which measures the number of metabolically active cells (Alley, M. C. et al (1988) Cancer Res 48:589-601).

rat MAT-LyLu cells = assay: Restoration of resistance by recombinant FGF in FGF-immunoprecipitated CM; conditions: added to CM depleted of both aFGF and bFGF
Procedure: The study was performed using rat MAT-LyLu cells. The reversal in CM-induced resistance was detected by measuring the changes in BrdU incorporation in treated samples relative to control samples. The source of CM was lung histocultures for both aFGF and bFGF experiments. The study used two controls: no CM (left solid curves, empty circles); with CM (right solid curves, empty squares). Upper left: CM minus […] (filled square); CM minus aFGF plus r-aFGF (filled circles, overlaps with the right CM-control curve). Upper right: CM minus bFGF (filled square, overlaps with the left control curve); CM minus bFGF plus r-bFGF (filled circle, overlaps with the right CM control curve). Lower left: Both the CM minus aFGF and bFGF (filled square) and the CM minus aFGF and bFGF plus aFGF (filled circle) curves overlap with the left control curve. Lower center: CM minus aFGF and bFGF (filled square, overlaps with left control curve); CM minus aFGF and bFGF plus r-bFGF (filled circle). Lower right: CM minus aFGF and bFGF (filled square, overlaps with left control curve); CM minus aFGF and bFGF plus r-aFGF and r-bFGF (filled circle, overlaps with the right CM-control curve).
aFGF or bFGF was immunoprecipitated with their respective monoclonal antibody (1 microgram/ml), in the presence of Protein G PLUS/protein A agarose (Oncogene). This procedure reduced the bFGF level in the original CM to below the detection limit of 5 pg/ml by the ELISA (Oncogene), and the aFGF level in the concentrated CM to below the detection limit by Western blotting.
The third study determined whether aFGF and/or bFGF are required for the resistance. Endogenous aFGF and/or bFGF were removed from the active CM by immunoprecipitation, and then reconstituted the CM using recombinant proteins. […] The fifth study confirmed that aFGF and bFGF were the main cause of chemoresistance, by using only r-aFGF and r-bFGF (i.e., without the immunoprecipitated CM) to induce resistance (FIG. 3). When given alone, r-aFGF had no effect whereas r-bFGF induced a concentration-dependent resistance. […]

[3] = Homo sapiens, read-out: IC50, Control (drug treatment only, without FGF treatment), No suramin, drug 96 hours
[4] = Homo sapiens, read-out: IC50, aFGF 0.3 ng/ml + bFGF 1 ng/ml, No suramin, FGF pretreatment 96 hours, drug 96 hours
[5] = Homo sapiens, read-out: IC50, aFGF 1 ng/ml + bFGF 3 ng/ml, No suramin, FGF pretreatment 96 hours, drug 96 hours
[6] = read-out: IC50, Control (without FGF treatment), Suramin, 15 μM, drug 96 hours with 15 μM suramin
[7] = read-out: IC50, aFGF 0.3 ng/ml + bFGF 1 ng/ml, With suramin, FGF pretreatment 96 hours, drug 96 hours with 15 micromolar suramin
[8] = read-out: IC50, aFGF 1 ng/ml + bFGF 3 ng/ml, With suramin, FGF pretreatment 96 hours, drug 96 hours with 15 micromolar suramin

CC[C@@]1(O)C(=O)OCc2c1cc1n(c2=O)Cc2cc3ccccc3nc2-1 [Camptothecin]
IC50 [1, 3]: 5.03 nM | IC50 [1, 4]: 11.4 nM | IC50 [1, 5]: 17.2 nM | Resistance, Folds, aFGF 0.3 ng/ml + bFGF 1 ng/ml [1]: 2.26 Folds | Resistance, Folds, aFGF 1 ng/ml + bFGF 3 ng/ml [1]: 3.42 Folds | IC50 [1, 6]: 4.8 nM | IC50 [1, 7]: 5.4 nM | IC50 [1, 8]: 5.78 nM | Remaining cell number at 72 hours (% of control) ([2]; drug concentration 2 NM): 83% | Remaining cell number at 72 hours × 10^6 ([2]; drug concentration 2 NM): 2.0 × 10^6 | Extracellular LDH, % of control ([2]; drug concentration 2 NM): 137 % of control | Extracellular bFGF, % of control ([2]; drug concentration 2 NM): 145 % of control | Extracellular concentration bFGF ([2]; drug concentration 2 NM): 9.08 pg/mL | bFGF:LDH ratio ([2]; drug concentration 2 NM): 1.06 | Remaining cell number at 72 hours (% of control) ([2]; drug concentration 6 NM): 50% | Remaining cell number at 72 hours × 10^6 ([2]; drug concentration 6 NM): 1.2 × 10^6 | Extracellular LDH, % of control ([2]; drug concentration 6 NM): 182 % of control | Extracellular bFGF, % of control ([2]; drug concentration 6 NM): 221 % of control | Extracellular concentration bFGF ([2]; drug concentration 6 NM): 13.9 pg/mL | bFGF:LDH ratio ([2]; drug concentration 6 NM): 1.22 | Remaining cell number at 72 hours (% of control) ([2]; drug concentration 20 NM): 21% | Remaining cell number at 72 hours × 10^6 ([2]; drug concentration 20 NM): 0.5 × 10^6 | Extracellular LDH, % of control ([2]; drug concentration 20 NM): 219 % of control | Extracellular bFGF, % of control ([2]; drug concentration 20 NM): 279 % of control | Extracellular concentration bFGF ([2]; drug concentration 20 NM): 17.5 pg/mL | bFGF:LDH ratio ([2]; drug concentration 20 NM): 1.28

N.N.[Cl][Pt][Cl] [Cisplatin]
Resistance, Folds, aFGF 0.3 ng/ml + bFGF 1 ng/ml [1]: 1.76 Folds | Resistance, Folds, aFGF 1 ng/ml + bFGF 3 ng/ml [1]: 3.69 Folds | IC50 ([1]; read-out: IC50, Control (drug treatment only, without FGF treatment), No suramin, drug 96 hours): 2760 nM | IC50 [1, 6]: 2690 nM | IC50 ([1]; read-out: IC50, aFGF 0.3 ng/ml + bFGF 1 ng/ml, No suramin, FGF pretreatment 96 hours, drug 96 hours): 4850 nM | IC50 [1, 7]: 3090 nM | IC50 ([1]; read-out: IC50, aFGF 1 ng/ml + bFGF 3 ng/ml, No suramin, FGF pretreatment 96 hours, drug 96 hours): 10200 nM | IC50 [1, 8]: 3010 nM | Remaining cell number at 72 hours (% of control) ([2]; drug concentration 2000 NM): 86% | Remaining cell number at 72 hours × 10^6 ([2]; drug concentration 2000 NM): 1.9 × 10^6 | Extracellular LDH, % of control ([2]; drug concentration 2000 NM): 169 % of control | Extracellular bFGF, % of control ([2]; drug concentration 2000 NM): 267 % of control | Extracellular concentration bFGF ([2]; drug concentration 2000 NM): 5.87 pg/mL | bFGF:LDH ratio ([2]; drug concentration 2000 NM): 1.58 | Remaining cell number at 72 hours (% of control) ([2]; drug concentration 6000 NM): 45% | Remaining cell number at 72 hours × 10^6 ([2]; drug concentration 6000 NM): 1.0 × 10^6 | Extracellular LDH, % of control ([2]; drug concentration 6000 NM): 534 % of control | Extracellular bFGF, % of control ([2]; drug concentration 6000 NM): 1561 % of control | Extracellular concentration bFGF ([2]; drug concentration 6000 NM): 95.9 pg/mL | bFGF:LDH ratio ([2]; drug concentration 6000 NM): 2.92 | Remaining cell number at 72 hours (% of control) ([2]; drug concentration 20000 NM): 18% | Remaining cell number at 72 hours × 10^6 ([2]; drug concentration 20000 NM): 0.4 × 10^6 | Extracellular LDH, % of control ([2]; drug concentration 20000 NM): 563 % of control | Extracellular bFGF, % of control ([2]; drug concentration 20000 NM): 1641 % of control | Extracellular concentration bFGF ([2]; drug concentration 20000 NM): 101 pg/mL | bFGF:LDH ratio ([2]; drug concentration 20000 NM): 2.88

CC[C@]1(O)C[C@@H]2CN(CCc3c([nH]c4ccccc34)[C@@](C(=O)OC)(c3cc4c(cc3OC)N(C)[C@H]3[C@@](O)(C(=O)OC)[C@H](OC(C)=O)[C@]5(CC)C=CCN6CC[C@]43[C@@H]65)C2)C1 [Vinblastine]
IC50 [1, 3]: 0.33 nM | IC50 [1, 4]: 0.45 nM | IC50 [1, 5]: 0.78 nM | Resistance, Folds, aFGF 0.3 ng/ml + bFGF 1 ng/ml [1]: 1.36 Folds | Resistance, Folds, aFGF 1 ng/ml + bFGF 3 ng/ml [1]: 2.36 Folds | IC50 [1, 6]: 0.4 nM | IC50 [1, 7]: 0.42 nM | IC50 [1, 8]: 0.35 nM | Remaining cell number at 72 hours (% of control) ([2]; drug concentration 0.5 NM): 74% | Remaining cell number at 72 hours × 10^6 ([2]; drug concentration 0.5 NM): 1.7 × 10^6 | Extracellular LDH, % of control ([2]; drug concentration 0.5 NM): 263 % of control | Extracellular bFGF, % of control ([2]; drug concentration 0.5 NM): 675 % of control | Extracellular concentration bFGF ([2]; drug concentration 0.5 NM): 59.1 pg/mL | bFGF:LDH ratio ([2]; drug concentration 0.5 NM): 2.57 | Remaining cell number at 72 hours (% of control) ([2]; drug concentration 1 NM): 43% | Remaining cell number at 72 hours × 10^6 ([2]; drug concentration 1 NM): 1.0 × 10^6 | Extracellular LDH, % of control ([2]; drug concentration 1 NM): 326 % of control | Extracellular bFGF, % of control ([2]; drug concentration 1 NM): 1073 % of control | Extracellular concentration bFGF ([2]; drug concentration 1 NM): 94.0 pg/mL | bFGF:LDH ratio ([2]; drug concentration 1 NM): 3.29 | Remaining cell number at 72 hours (% of control) ([2]; drug concentration 2 NM): 17% | Remaining cell number at 72 hours × 10^6 ([2]; drug concentration 2 NM): 0.4 × 10^6 | Extracellular LDH, % of control ([2]; drug concentration 2 NM): 513 % of control | Extracellular bFGF, % of control ([2]; drug concentration 2 NM): 2046 % of control | Extracellular concentration bFGF ([2]; drug concentration 2 NM): 179 pg/mL | bFGF:LDH ratio ([2]; drug concentration 2 NM): 3.99

r-aFGF: human recombinant aFGF, identical to the 14 kDa human aFGF except for the extra methionine at the amino terminus
amplification of the r-bFGF effect by r-aFGF (Human prostate PC3): more than 50 fold | induction of resistance (rat MAT-LyLu cells): did not induce resistance
